Results reported in patent publication US20100317624A1 (ASTRAZENECA AB, priority 2009, published 2010).
Where a name gives a salt, the structure may show the parent alone.

Molecular target: S. aureus GyrB ATPase (Staphylococcus aureus, UniProt P0A0K8)
Assay: S. aureus GyrB ATPase inhibition (ammonium molybdate/malachite green phosphate detection)
Assay type: biochemical
Details: compound at 1 μM; inhibition of S. aureus GyrB ATPase; read-out: Percent Inhibition (1 μM)
Procedure: S. aureus GyrB ATPase Inhibition Activity: Compounds may be tested for inhibition of S. aureus GyrB ATPase activity using an ammonium molybdate/malachite green-based phosphate detection assay (Lanzetta, P. A., L. J. Alvarez, P. S. Reinach, and O. A. Candia, 1979, 100: 95-97). Assays can be performed in multiwell plates in 30 μl reactions containing: 50 mM Hepes buffer pH 7.5, 75 mM ammonium acetate, 8.0 mM magnesium chloride, 0.5 mM ethylenediaminetetraacetic acid, 5% glycerol, 1.0 mM 1,4-Dithio-DL-threitol, 200 nM bovine serum albumin, 1.0 μg/ml sheared salmon sperm DNA, 250 pM E. coli GyrA, 250 pM S. aureus GyrB, 250 μM ATP, and compound in dimethylsulfoxide. Reactions can be quenched with 30 μl of ammonium molybdate/malachite green detection reagent containing 1.2 mM malachite green hydrochloride, 8.5 mM ammonium molybdate tetrahydrate, and 1 M hydrochloric acid. Plates can be read in an absorbance plate reader at 650 nm and percent inhibition values can be calculated using dimethylsulfoxide (2%)-containing reactions as 0% inhibition and EDTA-containing ([…]) reactions as 100% inhibition controls. An IC50 measurement of compound potency for each compound can be determined from reactions performed in the presence of 10 different compound concentrations.

S. aureus GyrB ATPase, sequence (P0AES4 whole entry): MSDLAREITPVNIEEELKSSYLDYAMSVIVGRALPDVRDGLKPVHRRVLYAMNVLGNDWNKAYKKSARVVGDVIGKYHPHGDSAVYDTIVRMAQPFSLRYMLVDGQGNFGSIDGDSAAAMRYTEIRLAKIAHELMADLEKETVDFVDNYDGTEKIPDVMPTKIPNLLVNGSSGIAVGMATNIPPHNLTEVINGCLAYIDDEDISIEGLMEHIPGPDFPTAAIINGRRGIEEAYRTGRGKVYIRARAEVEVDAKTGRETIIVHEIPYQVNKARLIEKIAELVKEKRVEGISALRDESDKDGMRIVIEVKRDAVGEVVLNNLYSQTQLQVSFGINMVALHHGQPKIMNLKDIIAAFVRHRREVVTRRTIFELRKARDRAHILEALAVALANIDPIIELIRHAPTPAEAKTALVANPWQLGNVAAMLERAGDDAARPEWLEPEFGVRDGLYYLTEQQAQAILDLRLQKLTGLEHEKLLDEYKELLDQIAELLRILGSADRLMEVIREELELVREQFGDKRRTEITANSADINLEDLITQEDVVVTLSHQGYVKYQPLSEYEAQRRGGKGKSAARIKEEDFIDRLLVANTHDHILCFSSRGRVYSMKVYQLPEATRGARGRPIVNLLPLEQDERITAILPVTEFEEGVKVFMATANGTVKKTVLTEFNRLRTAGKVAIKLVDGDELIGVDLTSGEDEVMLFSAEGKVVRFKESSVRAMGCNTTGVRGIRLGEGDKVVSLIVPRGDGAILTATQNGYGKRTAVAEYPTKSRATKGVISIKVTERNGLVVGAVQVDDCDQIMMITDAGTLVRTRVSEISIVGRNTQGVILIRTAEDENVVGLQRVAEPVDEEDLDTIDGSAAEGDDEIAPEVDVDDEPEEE
S. aureus GyrB ATPase, sequence (P0A0K8 whole entry): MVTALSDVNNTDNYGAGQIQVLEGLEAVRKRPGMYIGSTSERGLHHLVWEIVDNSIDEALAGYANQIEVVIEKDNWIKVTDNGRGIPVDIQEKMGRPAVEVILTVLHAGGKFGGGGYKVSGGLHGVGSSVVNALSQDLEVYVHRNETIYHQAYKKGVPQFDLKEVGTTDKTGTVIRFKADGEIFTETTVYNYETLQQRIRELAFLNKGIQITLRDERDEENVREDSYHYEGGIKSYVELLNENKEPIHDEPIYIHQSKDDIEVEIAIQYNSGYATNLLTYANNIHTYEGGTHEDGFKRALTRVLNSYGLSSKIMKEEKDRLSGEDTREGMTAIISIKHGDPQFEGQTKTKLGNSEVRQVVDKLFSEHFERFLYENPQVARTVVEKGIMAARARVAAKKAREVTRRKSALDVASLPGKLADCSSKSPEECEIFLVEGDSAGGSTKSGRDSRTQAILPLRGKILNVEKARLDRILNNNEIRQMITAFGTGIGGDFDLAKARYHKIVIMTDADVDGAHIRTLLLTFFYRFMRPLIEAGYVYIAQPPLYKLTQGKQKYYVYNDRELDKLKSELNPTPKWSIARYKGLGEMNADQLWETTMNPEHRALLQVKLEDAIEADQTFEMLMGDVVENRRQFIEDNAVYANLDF

Structure (SMILES) | inhibition at 1 µM
CCNC(=O)Nc1cc(-c2nc(-c3ccccc3)cs2)c(-c2cc3c(=O)c(C(=O)O)cn(CCN(C)C)c3cc2OCCN2CCOCC2)cn1 [Example 48, 1-(2-(dimethylamino)ethyl)-6-(6-(3-ethylureido)-4-(4-phenylthiazol-2-yl)pyridin-3-yl)-7-(2-morpholinoethoxy)-4-oxo-1,4-dihydroquinoline-3-carboxylic acid] | 99%
CCNC(=O)Nc1cc(-c2nc(C(F)(F)F)cs2)c(-c2ccc3c(c2)c(=O)c(C(=O)O)cn3[C@H](COP(=O)(O)O)CC(C)C)cn1 [Example 7, (5)-6-(6-(3-ethylureido)-4-(4-(trifluoromethyl)thiazol-2-yl)pyridin-3-yl)-1-(4-methyl-1-(phosphonooxy)pentan-2-yl)-4-oxo-1,4-dihydroquinoline-3-carboxylic acid] | 111%
CCNC(=O)Nc1cc(-c2nc(C(F)(F)F)cs2)c(-c2ccc3c(c2)c(=O)c(C(=O)N(C)C)cn3CC2CN3CCN2CC3)cn1 (stereo not drawn) [Example 31, 1-(1,4-diazabicyclo[2.2.2]oct-2-ylmethyl)-6-{6-[(ethylcarbamoyl)amino]-4-[4-(trifluoromethyl)-1,3-thiazol-2-yl]pyridin-3-yl}-N,N-dimethyl-4-oxo-1,4-dihydroquinoline-3-carboxamide] | 114%
CCNC(=O)Nc1cc(-c2nc(C(F)(F)F)cs2)c(-c2cc3c(=O)c(C(=O)O)cn([C@H](CO)C(C)C)c3cc2OC)cn1 [Example 28, 6-(6-(3-ethylureido)-4-(4-(trifluoromethyl)thiazol-2-yl)pyridin-3-yl)-1-((S)-1-hydroxy-3-methylbutan-2-yl)-7-methoxy-4-oxo-1,4-dihydroquinoline-3-carboxylic acid] | 104%
CCNC(=O)Nc1cc(-c2nc(-c3ccccc3)cs2)c(-c2cc3c(=O)c(C(=O)O)cn(C[C@@H]4CCCN4CC)c3cc2OCCN(CC)CC)cn1 [Example 49, (S)-7-(2-(diethylamino)ethoxy)-1-((1-ethylpyrrolidin-2-yl)methyl)-6-(6-(3-ethylureido)-4-(4-phenylthiazol-2-yl)pyridin-3-yl)-4-oxo-1,4-dihydroquinoline-3-carboxylic acid] | 105%
CCNC(=O)Nc1cc(-c2nc(C(F)(F)F)cs2)c(-c2ccc3c(c2)c(=O)c(C(=O)NCCCOP(=O)(O)O)cn3C2CC2)cn1 [Example 11, 3-(1-cyclopropyl-6-(6-(3-ethylureido)-4-(4-(trifluoromethyl)thiazol-2-yl)pyridin-3-yl)-4-oxo-1,4-dihydroquinoline-3-carboxamido)propyl dihydrogen phosphate hydrochloride] | 108%
CCNC(=O)Nc1cc(-c2nc(C(F)(F)F)cs2)c(-c2ccc3c(=O)c(C(=O)NCCCOP(=O)(O)O)cn(Cc4noc(C)n4)c3c2)cn1 [Example 13, 3-{[(7-{6[(ethylcarbamoyl)amino]-4-[4-(trifluoromethyl)-1,3-thiazol-2-yl]pyridin-3-yl}-1-[(5-methyl-1,2,4-oxadiazol-3-yl)methyl]-4-oxo-1,4-dihydroquinolin-3-yl)carbonyl]amino}propyl dihydrogen phosphate] | 99%
CCNC(=O)Nc1cc(-c2nc(C(F)(F)F)cs2)c(-c2ccc3c(c2)c(=O)c(C(=O)NCCCOP(=O)(O)O)cn3C(COC)COC)cn1 [Example 10, 3-(1-(1,3-dimethoxypropan-2-y1)-6-(6-(3-ethylureido)-4-(4-(trifluoromethyl)thiazol-2-yl)pyridin-3-yl)-4-oxo-1,4-dihydroquinoline-3-carboxamido)propyl dihydrogen phosphate hydrochloride] | 12%
CCNC(=O)Nc1cc(-c2nc(C(F)(F)F)cs2)c(-c2ccc3c(c2)c(=O)c(C(=O)OCCOP(=O)(O)O)cn3C2CC2)cn1 [Example 18, 2-(phosphonooxy)ethyl 1-cyclopropyl-6-(6-(3-ethylureido)-4-(4-(trifluoromethyl)thiazol-2-yl)pyridin-3-yl)-4-oxo-1,4-dihydroquinoline-3-carboxylate hydrochloride] | 104%
CCNC(=O)Nc1cc(-c2nc(C(F)(F)F)cs2)c(-c2cc3c(=O)c(C(=O)O)cn(CCN(C)C)c3cc2F)cn1 [Example 20, 1-(2-(dimethylamino)ethyl)-6-(6-(3-ethylureido)-4-(4-(trifluoromethyl)thiazol-2-yl)pyridin-3-yl)-7-fluoro-4-oxo-1,4-dihydroquinoline-3-carboxylic acid] | 106%
CCNC(=O)Nc1cc(-c2nc(C(F)(F)F)cs2)c(-c2ccc3c(c2)c(=O)c(C(=O)O)cn3C[C@@H]2CCN(CCN3CCN(C)CC3)C2)cn1 [Example 36, (R)-6-(6-(3-ethylureido)-4-(4-(trifluoromethyl)thiazol-2-yl)pyridin-3-yl)-1-((1-(2-(4-methylpiperazin-1-yl)ethyl)pyrrolidin-3-yl)methyl)-4-oxo-1,4-dihydroquinoline-3-carboxylic acid] | 112%
CCNC(=O)Nc1cc(-c2nc(C(F)(F)F)cs2)c(-c2ccc3c(c2)c(=O)c(C(=O)N(C)C)cn3CCN2CCN(C)CC2)cn1 [Example 30, 6-{6-[(Ethylcarbamoyl)amino]-4-[4-(trifluoromethyl)-1,3-thiazol-2-yl]pyridin-3-yl}-N,N-dimethyl-1-[2-(4-methylpiperazin-1-yl)ethyl]-4-oxo-1,4-dihydroquinoline-3-carboxamide] | 98%
CCNC(=O)Nc1cc(-c2nc(C(F)(F)F)cs2)c(-c2ccc3c(c2)c(=O)c(C(=O)O)cn3CCN)cn1 [Example 34, 1-(2-Aminoethyl)-6-{6-[(ethylcarbamoyl)amino]-4-[4-(trifluoromethyl)-1,3-thiazol-2-yl]pyridin-3-yl}-4-oxo-1,4-dihydroquinoline-3-carboxylic acid] | 112%
CCNC(=O)Nc1cc(-c2nc(C(F)(F)F)cs2)c(-c2ccc3c(c2)c(=O)c(C(=O)O)cn3[C@H](CC)COP(=O)(O)O)cn1 [Example 6, (R)-6-(6-(3-ethylureido)-4-(4-(trifluoromethyl)thiazol-2-yl)pyridin-3-yl)-4-oxo-1-(1-(phosphonooxy)butan-2-yl)-1,4-dihydroquinoline-3-carboxylic acid] | 96%
CCNC(=O)Nc1cc(-c2nc(C(F)(F)F)cs2)c(-c2ccc3c(c2)c(=O)c(C(=O)N(C)C)cn3C[C@H]2CCCNC2)cn1 [Example 33, 6-{6-[(Ethylcarbamoyl)amino]-4-[4-(trifluoromethyl)-1,3-thiazol-2-yl]pyridin-3-yl}-N,N-dimethyl-4-oxo-1-[(3S)-piperidin-3-ylmethyl]-1,4-dihydroquinoline-3-carboxamide] | 104%
CCNC(=O)Nc1cc(-c2nc(C(F)(F)F)cs2)c(-c2ccc3c(c2)c(=O)c(C(=O)NCCOP(=O)(O)O)cn3C(COC)COC)cn1 [Example 8, 2-(1-(1,3-dimethoxypropan-2-yl)-6-(6-(3-ethylureido)-4-(4-(trifluoromethyl)thiazol-2-yl)pyridin-3-yl)-4-oxo-1,4-dihydroquinoline-3-carboxamido)ethyl dihydrogen phosphate hydrochloride] | 108%
CCNC(=O)Nc1cc(-c2nc(C(F)(F)F)cs2)c(-c2ccc3c(c2)c(=O)c(C(=O)OCCOC(=O)C(C)C)cn3C(COC)COC)cn1 [Example 43, 2-(isobutyryloxy)ethyl 1-(1,3-dimethoxypropan-2-yl)-6-(6-(3-ethylureido)-4-(4-(trifluoromethyl)thiazol-2-yl)pyridin-3-yl)-4-oxo-1,4-dihydroquinoline-3-carboxylate] | 103%
CCNC(=O)Nc1cc(-c2nc(C3CC3)cs2)c(-c2ccc3c(c2)c(=O)c(C(=O)O)cn3[C@H](COP(=O)(O)O)CC(C)C)cn1 [Example 12, (S)-6-(4-(4-cyclopropylthiazol-2-yl)-6-(3-ethylureido)pyridin-3-yl)-1-(4-methyl-1-(phosphonooxy)pentan-2-yl)-4-oxo-1,4-dihydroquinoline-3-carboxylic acid] | 104%
CCNC(=O)Nc1cc(-c2nc(C(F)(F)F)cs2)c(-c2ccc3c(c2)c(=O)c(C(=O)N(C)C)cn3C[C@@H]2CCCNC2)cn1 [Example 32, 6-{6-[(Ethylcarbamoyl)amino]-4-[4-(trifluoromethyl)-1,3-thiazol-2-yl]pyridin-3-yl}-N,N-dimethyl-4-oxo-1-[(3R)-piperidin-3-ylmethyl]-1,4-dihydroquinoline-3-carboxamide] | 104%
CCNC(=O)Nc1cc(-c2nc(-c3ccccc3)cs2)c(-c2cc3c(=O)c(C(=O)O)cn(CCN(C)C)c3cc2OCCN(CC)CC)cn1 [Example 46, 7-(2-(diethylamino)ethoxy)-1-(2-(dimethylamino)ethyl)-6-(6-(3-ethylureido)-4-(4-phenylthiazol-2-yl)pyridin-3-yl)-4-oxo-1,4-dihydroquinoline-3-carboxylic acid] | 108%
CCNC(=O)Nc1cc(-c2nc(-c3ccccc3)cs2)c(-c2cc3c(=O)c(C(=O)O)cn(CCN(C)C)c3cc2OCCN(C)C)cn1 [Example 24, 7-(2-(dimethylamino)ethoxy)-1-(2-(dimethylamino)ethyl)-6-(6-(3-ethylureido)-4-(4-phenylthiazol-2-yl)pyridin-3-yl)-4-oxo-1,4-dihydroquinoline-3-carboxylic acid] | 107%
